Where a SMILES comes first, the peptide text is derived from it.
Experiments:
[1] = molecular target: T1, human 5-HT3-C (Homo sapiens, UniProt Q8WXA8); test: Two-electrode voltage clamp, Xenopus oocytes injected with 5-HT3-C cRNA alone; format: cell-based; conditions: for sensitivity of oocytes to neuroactive compound: >100 μM, only 5-HT3-C cRNA (33.5 ng), n=5
T1 construct: Characterization of the Function of Protein Encoded by p5HT3CR in Xenopus oocvtes; expressed in transfected cells; host or cells: Xenopus laevis oocytes injected with in vitro transcribed cRNA (pGEM HE)
T1 sequence (Q8WXA8 28-447): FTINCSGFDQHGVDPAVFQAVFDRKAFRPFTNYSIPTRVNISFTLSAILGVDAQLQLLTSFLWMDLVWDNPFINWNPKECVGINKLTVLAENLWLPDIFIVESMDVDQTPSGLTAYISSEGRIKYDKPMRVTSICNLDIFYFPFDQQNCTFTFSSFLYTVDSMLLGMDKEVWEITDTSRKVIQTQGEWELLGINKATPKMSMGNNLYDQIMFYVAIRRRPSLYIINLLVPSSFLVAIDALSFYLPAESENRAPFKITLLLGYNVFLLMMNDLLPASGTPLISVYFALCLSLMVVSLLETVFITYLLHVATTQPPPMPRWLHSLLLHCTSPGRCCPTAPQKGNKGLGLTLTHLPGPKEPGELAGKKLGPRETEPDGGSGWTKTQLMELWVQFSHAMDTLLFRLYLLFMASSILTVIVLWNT
Experimental: Characterization of the Function of Protein Encoded by p5HT3CR in Xenopus oocvtes Xenopus laevis oocytes were prepared and injected using standard methods previously described and known in the art (Fraser et al., 1993). Ovarian lobes from adult female Xenopus laevis (Nasco, Fort Atkinson, Wis.) were teased apart, rinsed several times in nominally Ca-free saline containing (in mM): NaCl 82.5, KCl 2.5, MgCl2 1, HEPES 5, adjusted to pH 7.0 with NaOH(OR-2), and gently shaken in OR-2 containing 0.2% collagenase Type 1 (ICN Biomedicals, Aurora, Ohio) for 2–5 hours. When approximately 50% of the follicular layers were removed, Stage V and VI oocytes were selected and rinsed in media consisting of 75% OR-2 and 25% ND-96. The ND-96 contained (in mM): NaCl 100, KCl 2, MgCl2 1, CaCl2 1.8, HEPES 5, Na pyruvate 2.5, gentamicin (50 ug/ml), adjusted to pH 7.0 with NaOH. […] For in vitro transcription, pGEM HE (Liman et al., 1992) containing human 5-HT3-A (Genbank D49394) or 5-HT3-C cDNA was linearized with NheI and transcribed with T7 RNA polymerase (Stratagene) in the presence of the cap analog m7G(5′)ppp(5′)G. The synthesized cRNA was purified with a Sephadex G-50 spin column. […] Control oocytes were injected with 50 nl of water. Oocytes were incubated for 2–14 days in ND-96 before analysis for expression of the human 5-HT3-C. Incubations and collagenase digestion were carried out at room temperature. Injected oocytes were maintained in 48 well cell culture clusters (Costar, Cambridge, Mass.) at 18° C. Whole cell agonist-induced currents were measured 1–14 days after injection with a conventional two-electrode voltage clamp (GeneClamp500, Axon Instruments, Foster City, Calif.) using standard methods previously described and known in the art (Dascal, 1987). The microelectrodes were filled with 3 M KCl, which had resistances of 1 and 2 MΩ. Cells were continuously perfused with ND96 at 10 ml/min at room temperature unless indicated. Membrane voltage was clamped at −70 mV unless indicated.

[2] = molecular target: T2, 5-HT3-C together with nicotinic ACh receptor subunits β1, β2 and β3 (Homo sapiens, UniProt Q8WXA8); test: Two-electrode voltage clamp, oocytes injected with 5-HT3-C together with nicotinic ACh receptor subunits β1, β2 and β3; format: cell-based; conditions: >100 μM; 5-HT3-C with β1, β2 and β3 (0.2–0.25 ng); n=5;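 further: oocytes expressing the subunits for 2–14 days, voltage-clamped at −70 mV under continuous ND96 perfusion at room temperature, with water-injected oocytes serving as controls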
T2 construct: Characterization of the Function of Protein Encoded by p5HT3CR in Xenopus oocvtes; expressed in transfected cells; host or cells: Xenopus laevis oocytes injected with cRNA
T2 sequence (Q8WXA8 28-447): T1 sequence (Q8WXA8 28-447)

| SMILES | sensitivity of oocytes to neuroactive compound [1] | sensitivity of oocytes to neuroactive compound [2] | effect of agonist (agonist-induced current) ([1]; 100 μM, oocytes injected with 33.5 ng 5-HT3-C) | effect of agonist (agonist-induced current) ([1]; 100 M, oocytes injected with 33.3 ng 5-HT3-C cRNA) | effect of agonist (agonist-induced current) ([1]; 10 μM, oocytes injected with 33.3 ng 5-HT3-C cRNA) | effect of agonist (agonist-induced current) ([1]; >30 μM, oocytes injected with 33.3 ng 5-HT3-C cRNA) |
| --- | --- | --- | --- | --- | --- | --- |
| O=C(O)Cc1c[nH]c2ccc(O)cc12 [5-hydroxyindolacetic acid] | insensitive | insensitive |  |  |  |  |
| NC(=O)Cc1c[nH]c2ccc(O)cc12 [5-hydroxyindole 3-acetamide] | insensitive | insensitive |  |  |  |  |
| COc1cc2c(CCNC(C)=O)c[nH]c2cc1O [6-hydroxymelatonin] | insensitive | insensitive |  |  |  |  |
| NCCc1ccc(O)c(O)c1 [DA, dopamine] | insensitive | insensitive | No effect |  |  |  |
| NCCCC(=O)O [GABA] | insensitive | insensitive |  |  |  | No effect |
| N[C@H](CC(=O)O)C(=O)O [L-aspartate, L- and D-aspartate] | insensitive | insensitive |  |  |  |  |
| CC(=O)NCCc1c[nH]c2ccc(O)cc12 [N-acetyl serotonin] | insensitive | insensitive |  |  |  |  |
| N=C(N)NCCCCN [agmatine] | insensitive | insensitive |  |  |  |  |
| N[C@@H]1CONC1=O [d-cycloserine] | insensitive | insensitive |  |  |  |  |
| N[C@@H](CCC(=O)O)C(=O)O [glutamate] | insensitive | insensitive |  |  |  |  |
| NC[C@H](O)c1ccc(O)c(O)c1 [norepinephrine] | insensitive | insensitive |  |  |  |  |
| NCC(O)c1ccc(O)cc1 (stereo not shown) [octopamine] | insensitive | insensitive |  |  |  |  |
| NCCS(=O)(=O)O [taurine] | insensitive | insensitive |  |  |  |  |
| NCCc1c[nH]c2ccccc12 [tryptamine] | insensitive | insensitive |  |  |  |  |
| NCCc1ccc(O)cc1 [tyramine] | insensitive | insensitive |  |  |  |  |

More lines, main results first:

| sensitivity of oocytes to neuroactive compound [1] | sensitivity of oocytes to neuroactive compound [2] | effect of agonist (agonist-induced current) ([1]; 100 μM, oocytes injected with 33.5 ng 5-HT3-C) | effect of agonist (agonist-induced current) ([1]; 100 M, oocytes injected with 33.3 ng 5-HT3-C cRNA) | effect of agonist (agonist-induced current) ([1]; 10 μM, oocytes injected with 33.3 ng 5-HT3-C cRNA) | SMILES | effect of agonist (agonist-induced current) ([1]; >30 μM, oocytes injected with 33.3 ng 5-HT3-C cRNA) |
| --- | --- | --- | --- | --- | --- | --- |
| insensitive | insensitive |  |  |  | O=C(O)c1cc2cc(O)ccc2[nH]1 [5-hydroxyindole 2-carboxylic acid] |  |
| insensitive | insensitive |  |  |  | CC(=O)N[C@@H](CS)C(=O)O [N-acetyl-L-cysteine] |  |
| insensitive | insensitive |  |  |  | CC(=O)N[C@@H](CC(=O)O)C(=O)N[C@@H](CCC(=O)O)C(=O)O [acetyl-aspartyl-L-glutamic acid] (Ac-Asp-Glu-OH) |  |
| insensitive | insensitive |  |  |  | NC/C=C\C(=O)O [cis-4 aminocrotonic acid] |  |
| insensitive | insensitive |  | No effect |  | NCC(=O)O [glycine] |  |
| insensitive | insensitive |  |  | No effect | NCCc1c[nH]cn1 [histamine] |  |
| insensitive | insensitive |  |  |  | COc1ccc2[nH]cc(CCNC(C)=O)c2c1 [melatonin] |  |
| insensitive | insensitive |  |  |  | N[C@@H](Cc1c[nH]c2ccccc12)C(=O)O [tryptophan] |  |
| insensitive | insensitive |  |  |  | NC(=O)[C@@H](N)Cc1c[nH]c2ccccc12 [tryptophanamide] |  |
